From PubChem BioAssay (NCI)
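A five-concentration, 48-hour dose response in 96-well plates underlies each endpoint, interpolated linearly between surrounding concentrations. GI50: concentration for 50% inhibition of growth. Definition used: TGI = concentration required for complete inhibition of growth.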

Tests used:
Assay in all cases: NCI-60 cell line screen, 48 h
CCRF-CEM leukemia = tested on: CCRF-CEM leukemia
M14 melanoma = tested on: M14 melanoma
SN12C renal = tested on: SN12C renal
RPMI-8226 leukemia = tested on: RPMI-8226 leukemia
OVCAR-5 ovarian = tested on: OVCAR-5 ovarian
DU-145 prostate = tested on: DU-145 prostate
NCI-H522 lung = tested on: NCI-H522 lung
NCI/ADR-RES ovarian = tested on: NCI/ADR-RES ovarian
MOLT-4 leukemia = tested on: MOLT-4 leukemia
MDA-MB-435 = tested on: MDA-MB-435

O=c1cc2ccccc2nn1-c1ccccc1Cl
TGI (CCRF-CEM leukemia): > 100 µM | TGI (M14 melanoma): > 100 µM | TGI (SN12C renal): > 100 µM | TGI (RPMI-8226 leukemia): > 100 µM | TGI (OVCAR-5 ovarian): > 100 µM

O=C(Nc1ccc(Cl)cc1)c1cc2ccccc2cc1O
GI50 (DU-145 prostate): 3.18 µM | TGI (DU-145 prostate): > 100 µM | GI50 (NCI-H522 lung): 1.25 µM | TGI (NCI-H522 lung): 6.88 µM | GI50 (CCRF-CEM leukemia): 4.65 µM | TGI (CCRF-CEM leukemia): > 100 µM | GI50 (SN12C renal): 2.46 µM | TGI (SN12C renal): > 100 µM | GI50 (NCI/ADR-RES ovarian): 2.81 µM | TGI (NCI/ADR-RES ovarian): > 100 µM | GI50 (MOLT-4 leukemia): 4.19 µM | TGI (MOLT-4 leukemia): > 100 µM | GI50 (MDA-MB-435): 3.84 µM | TGI (MDA-MB-435): > 100 µM | GI50 (OVCAR-5 ovarian): 4.07 µM | TGI (OVCAR-5 ovarian): > 100 µM

C=C1CC[C@@H]2C(C)(C)CCC[C@@]2(C)[C@@H]1Cc1cc(O)ccc1O
TGI (NCI-H522 lung): 3.66 µM | TGI (CCRF-CEM leukemia): 5.23 µM | TGI (M14 melanoma): 24.3 µM | TGI (SN12C renal): 15.6 µM | TGI (RPMI-8226 leukemia): 15.9 µM | TGI (MOLT-4 leukemia): 9.07 µM | TGI (OVCAR-5 ovarian): 31.3 µM

CCSc1nc(N=Cc2cccs2)c2cn[nH]c2n1
GI50 (DU-145 prostate): 15.1 µM | TGI (DU-145 prostate): > 100 µM | GI50 (NCI-H522 lung): 48.5 µM | TGI (NCI-H522 lung): > 100 µM | GI50 (M14 melanoma): 14.8 µM | TGI (M14 melanoma): 28 µM | GI50 (SN12C renal): 61.9 µM | TGI (SN12C renal): > 100 µM | GI50 (RPMI-8226 leukemia): 3.19 µM | TGI (RPMI-8226 leukemia): > 100 µM | GI50 (NCI/ADR-RES ovarian): 15.7 µM | TGI (NCI/ADR-RES ovarian): 61.4 µM | GI50 (MOLT-4 leukemia): 35.8 µM | TGI (MOLT-4 leukemia): > 100 µM | GI50 (MDA-MB-435): 10.8 µM | TGI (MDA-MB-435): 57.2 µM | GI50 (OVCAR-5 ovarian): 14.2 µM | TGI (OVCAR-5 ovarian): 50.9 µM

O=C(O)C12C3CCCC1C2CC3 (stereo not given)
TGI (NCI-H522 lung): > 100 µM | TGI (CCRF-CEM leukemia): > 100 µM | TGI (M14 melanoma): > 100 µM | TGI (SN12C renal): > 100 µM | TGI (RPMI-8226 leukemia): > 100 µM | TGI (MOLT-4 leukemia): > 100 µM | TGI (OVCAR-5 ovarian): > 100 µM

N.N.NC(CS)C(=O)[O-].NC(CS)C(=O)[O-].[Pt+4] (stereo not given)
GI50 (NCI-H522 lung): > 50 µM | TGI (NCI-H522 lung): > 50 µM | GI50 (CCRF-CEM leukemia): > 50 µM | TGI (CCRF-CEM leukemia): > 50 µM | GI50 (M14 melanoma): > 50 µM | TGI (M14 melanoma): > 50 µM | GI50 (SN12C renal): > 50 µM | TGI (SN12C renal): > 50 µM | GI50 (RPMI-8226 leukemia): > 50 µM | TGI (RPMI-8226 leukemia): > 50 µM | GI50 (MOLT-4 leukemia): > 50 µM | TGI (MOLT-4 leukemia): > 50 µM | GI50 (OVCAR-5 ovarian): > 50 µM | TGI (OVCAR-5 ovarian): > 50 µM

Cc1c2cc[nH]c(=O)c2cc2c(=O)c3cnccc3[nH]c12
TGI (NCI-H522 lung): > 100 µM | TGI (CCRF-CEM leukemia): > 100 µM | TGI (M14 melanoma): > 100 µM | TGI (SN12C renal): > 100 µM | TGI (RPMI-8226 leukemia): > 100 µM | TGI (MOLT-4 leukemia): > 100 µM | TGI (OVCAR-5 ovarian): > 100 µM

COc1nc(C)cc2c(=O)n(-c3ccccc3)n(CCCN3CCN(c4ccc(Cl)cc4)CC3)c(=O)c12
GI50 (DU-145 prostate): > 50 µM | TGI (DU-145 prostate): > 50 µM | GI50 (NCI-H522 lung): 28.6 µM | TGI (NCI-H522 lung): > 50 µM | GI50 (M14 melanoma): 46.6 µM | TGI (M14 melanoma): > 50 µM | GI50 (SN12C renal): > 50 µM | TGI (SN12C renal): > 50 µM | GI50 (RPMI-8226 leukemia): > 50 µM | TGI (RPMI-8226 leukemia): > 50 µM | GI50 (NCI/ADR-RES ovarian): > 50 µM | TGI (NCI/ADR-RES ovarian): > 50 µM | GI50 (MOLT-4 leukemia): > 50 µM | TGI (MOLT-4 leukemia): > 50 µM | GI50 (MDA-MB-435): > 50 µM | TGI (MDA-MB-435): > 50 µM | GI50 (OVCAR-5 ovarian): > 50 µM | TGI (OVCAR-5 ovarian): > 50 µM

CC(=O)OCC1OC(n2c(=O)n(-c3ccccc3)c(=O)c3ccccc32)C(OC(C)=O)C(OC(C)=O)C1OC(C)=O (stereo not given)
TGI (NCI-H522 lung): > 100 µM | TGI (CCRF-CEM leukemia): > 100 µM | TGI (M14 melanoma): > 100 µM | TGI (SN12C renal): > 100 µM | TGI (RPMI-8226 leukemia): > 100 µM | TGI (MOLT-4 leukemia): > 100 µM | TGI (OVCAR-5 ovarian): > 100 µM

CN(c1ccccc1)C(c1ccccc1)C(O)c1ccccc1 (stereo not given)
TGI (NCI-H522 lung): 36.9 µM | TGI (CCRF-CEM leukemia): 63.3 µM | TGI (M14 melanoma): 30.4 µM | TGI (SN12C renal): 31.3 µM | TGI (RPMI-8226 leukemia): 49.3 µM | TGI (MOLT-4 leukemia): 42.1 µM | TGI (OVCAR-5 ovarian): 37.3 µM

COC(=O)/C(=C\c1c(C)[nH]c2ccccc12)S(=O)(=O)c1ccccc1
GI50 (DU-145 prostate): 2.94 µM | TGI (DU-145 prostate): 8.01 µM | GI50 (NCI-H522 lung): 3.19 µM | TGI (NCI-H522 lung): 14.4 µM | GI50 (M14 melanoma): 4.4 µM | TGI (M14 melanoma): 20 µM | GI50 (SN12C renal): 2.55 µM | TGI (SN12C renal): 10.3 µM | GI50 (RPMI-8226 leukemia): 3.15 µM | TGI (RPMI-8226 leukemia): > 100 µM | GI50 (NCI/ADR-RES ovarian): 4.19 µM | TGI (NCI/ADR-RES ovarian): 67.7 µM | GI50 (MOLT-4 leukemia): 1.9 µM | TGI (MOLT-4 leukemia): > 100 µM | GI50 (MDA-MB-435): 2.86 µM | TGI (MDA-MB-435): 13.8 µM | GI50 (OVCAR-5 ovarian): 17.4 µM | TGI (OVCAR-5 ovarian): 38 µM

COC(=O)C1=C(O)C(O)=C(C(=O)OC)C1
TGI (NCI-H522 lung): > 100 µM | TGI (CCRF-CEM leukemia): > 100 µM | TGI (M14 melanoma): > 100 µM | TGI (SN12C renal): > 100 µM | TGI (RPMI-8226 leukemia): > 100 µM | TGI (MOLT-4 leukemia): > 100 µM | TGI (OVCAR-5 ovarian): > 100 µM

CCOP(=O)(OCC)/C(C#N)=C/c1ccco1
TGI (NCI-H522 lung): > 100 µM | TGI (CCRF-CEM leukemia): > 100 µM | TGI (M14 melanoma): > 100 µM | TGI (SN12C renal): > 100 µM | TGI (RPMI-8226 leukemia): > 100 µM | TGI (MOLT-4 leukemia): > 100 µM | TGI (OVCAR-5 ovarian): > 100 µM

ON=C1CCC(c2ccccc2)CC1 (stereo not given)
TGI (NCI-H522 lung): > 100 µM | TGI (CCRF-CEM leukemia): > 100 µM | TGI (M14 melanoma): > 100 µM | TGI (SN12C renal): > 100 µM | TGI (OVCAR-5 ovarian): > 100 µM

COC(=O)c1ccc(N=NN(C)CO)cc1
TGI (NCI-H522 lung): > 100 µM | TGI (CCRF-CEM leukemia): > 100 µM | TGI (M14 melanoma): > 100 µM | TGI (SN12C renal): > 100 µM | TGI (RPMI-8226 leukemia): > 100 µM | TGI (MOLT-4 leukemia): > 100 µM | TGI (OVCAR-5 ovarian): > 100 µM

CCOC(=O)CC1=CSC2=NCCN12
TGI (NCI-H522 lung): > 100 µM | TGI (CCRF-CEM leukemia): > 100 µM | TGI (M14 melanoma): > 100 µM | TGI (SN12C renal): > 100 µM | TGI (OVCAR-5 ovarian): > 100 µM

COc1ccc(/C=C2/C[N+](C)(C)C/C(=C/c3ccc(OC)cc3)C2=O)cc1
TGI (NCI-H522 lung): 37.9 µM | TGI (CCRF-CEM leukemia): > 96.1 µM | TGI (M14 melanoma): > 100 µM | TGI (SN12C renal): > 100 µM | TGI (RPMI-8226 leukemia): 31.1 µM | TGI (MOLT-4 leukemia): 57.1 µM | TGI (OVCAR-5 ovarian): > 100 µM

C[C@]12CC[C@@H]3c4ccc(O)cc4CC[C@H]3[C@@H]1CC[C@@H]2NS(=O)(=O)Cc1ccc(Cl)cc1
GI50 (DU-145 prostate): 3.99 µM | TGI (DU-145 prostate): 16.8 µM | GI50 (CCRF-CEM leukemia): 2.63 µM | TGI (CCRF-CEM leukemia): > 100 µM | GI50 (M14 melanoma): 2.49 µM | TGI (M14 melanoma): 6.25 µM | GI50 (SN12C renal): 1.7 µM | TGI (SN12C renal): 3.36 µM | GI50 (RPMI-8226 leukemia): 3.14 µM | TGI (RPMI-8226 leukemia): 15.5 µM | GI50 (NCI/ADR-RES ovarian): 2.69 µM | TGI (NCI/ADR-RES ovarian): 10.7 µM | GI50 (MOLT-4 leukemia): 2.62 µM | TGI (MOLT-4 leukemia): 31.3 µM | GI50 (MDA-MB-435): 2.78 µM | TGI (MDA-MB-435): 9.03 µM | GI50 (OVCAR-5 ovarian): 3.76 µM | TGI (OVCAR-5 ovarian): 14.2 µM

CCOC(=O)C(=O)Nc1c(N(CC)CC)n2ccccc2nc1=O
TGI (NCI-H522 lung): > 100 µM | TGI (CCRF-CEM leukemia): > 100 µM | TGI (M14 melanoma): > 100 µM | TGI (SN12C renal): > 100 µM | TGI (RPMI-8226 leukemia): > 100 µM | TGI (MOLT-4 leukemia): > 100 µM | TGI (OVCAR-5 ovarian): > 100 µM

CC1=Cc2cc3[n-]c(cc4nc(cc5[n-]c(cc1n2)cc5C)C(C)=C4CCC(=O)O)c(CCC(=O)O)c3C.[Pd+2]
GI50 (DU-145 prostate): > 100 µM | TGI (DU-145 prostate): > 100 µM | TGI (NCI-H522 lung): > 26.7 µM | GI50 (CCRF-CEM leukemia): 5.37 µM | TGI (CCRF-CEM leukemia): 13.7 µM | GI50 (M14 melanoma): 12.7 µM | TGI (M14 melanoma): 31.1 µM | GI50 (SN12C renal): 9.17 µM | TGI (SN12C renal): 17.9 µM | GI50 (RPMI-8226 leukemia): 17.3 µM | TGI (RPMI-8226 leukemia): 36.9 µM | GI50 (MOLT-4 leukemia): 10.1 µM | TGI (MOLT-4 leukemia): 27.5 µM | GI50 (MDA-MB-435): 68.9 µM | TGI (MDA-MB-435): > 100 µM | GI50 (OVCAR-5 ovarian): 41.6 µM | TGI (OVCAR-5 ovarian): 58.2 µM

CC(C)(C)[C@H]1CO[C@]2(C)[C@@H]3C[C@@H]3C(=O)N12
TGI (NCI-H522 lung): > 100 µM | TGI (CCRF-CEM leukemia): > 100 µM | TGI (M14 melanoma): > 100 µM | TGI (SN12C renal): > 100 µM | TGI (RPMI-8226 leukemia): > 100 µM | TGI (OVCAR-5 ovarian): > 100 µM
